# Square brackets hold non-standard residues; d marks the D form. Primed or numbered codes have the meaning given here. Side chains are listed from the residue outwards. oligo‑glycol (n:2) = oligo-glycol tether (n=2) linking D-Lys(N3) to alkynyl rhamnose by click reaction; oligo‑glycol (n:5) = oligo-glycol tether (n=5) linking D-Lys(N3) to alkynyl rhamnose by click reaction; dLys(N3)′ = its azide, alkyne or alkene has reacted where a group follows in round brackets; rhamnose derivative = not defined here; click linkage = not defined here; pGlu = O=C1CC[C@@H](C(=O)O)N1
# T1: LHRH-R (UniProt P30968 1-328)
# T1 sequence (looked up): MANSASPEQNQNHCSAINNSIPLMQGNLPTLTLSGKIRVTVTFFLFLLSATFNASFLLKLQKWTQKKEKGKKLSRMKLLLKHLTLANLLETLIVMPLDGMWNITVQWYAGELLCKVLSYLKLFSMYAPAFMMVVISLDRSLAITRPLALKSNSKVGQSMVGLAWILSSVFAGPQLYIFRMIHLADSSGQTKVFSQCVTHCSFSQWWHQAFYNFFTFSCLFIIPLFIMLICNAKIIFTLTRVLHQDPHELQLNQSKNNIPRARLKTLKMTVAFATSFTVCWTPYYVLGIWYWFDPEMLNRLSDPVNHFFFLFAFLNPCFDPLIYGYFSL
# B1: LHRH-Rha (peptide)
# peptide: [pGlu]HWSY[dLys(N3)′](rhamnose)LRPG-NH2
# B2: LHRH-TEG-Rha (peptide)
# peptide: [pGlu]HWSY[dLys(N3)′]([oligo‑glycol (n:2)-rhamnose])LRPG-NH2
# B3: LHRH-HEG-Rha (peptide)
# peptide: [pGlu]HWSY[dLys(N3)′]([oligo‑glycol (n:5)-rhamnose])LRPG-NH2
# B4: C7b-triEGRha (VHH)
# VHH: QVQLVQSGGGLVQAGGSLRLSCAASGRTFSSYAMAWFRQAPGKEREFVAAISWSGANIYVADSVKGRFTISRDNAKDTVYLQMNSLKPEDTAVYYCAVKLGFAPVEERQYDYWGQGTQVTVSS
# modifications: C-terminal LPETGG motif ligated by sortase A (enhanced SrtA) to GGG-triEGRha (triethylene glycol-rhamnose)
# notes: also called Rha conjugated C7b
# B5: C7b-hexEGRha (VHH)
# VHH: B4 VHH
# modifications: C-terminal LPETGG motif ligated by sortase A (enhanced SrtA) to GGG-hexEGRha (hexaethylene glycol-rhamnose)
# notes: as for B4
# B6: C7b-triEGRha: nanobody C7b linked by SrtA to small molecule GGG-triEGRha (conjugate)
# VHH: MQVQLVQSGGGLVQAGGSLRLSCAASGRTFSSYAMAWFRQAPGKEREFVAAISWSGANIYVADSVKGRFTISRDNAKDTVYLQMNSLKPEDTAVYYCAVKLGFAPVEERQYDYWGQGTQVTVSSLPETGG
# B7: C7b-hexEGRha: nanobody C7b linked by SrtA to small molecule GGG-hexEGRha (conjugate)
# VHH: B6 VHH
# Experiments:
# [1] = system: MCF7 cells (LHRH-R positive); assay: Flow cytometry, recruitment of anti-Rha antibody on MCF7 cells; format: cell-based; conditions: 250 nM, anti-Rha antibody 20 μg/mL, FIG. 7
# Experimental: (§1) Commercialized MCF7 cells (LHRH-R positive) and UCI-107(LHRH-R negative) were grown in DMEM supplemented with 10% FBS, 1% penicillin-streptomycin. All cells were cultured at 37° C. in a 5% CO2 humidified atmosphere.
# (1) Cells were cultured and detached with trypsin-EDTA and then resuspended to 1.0×10^5 cells/mL. Forty thousand of these cells were added into sterile centrifuge tubes. (2) LHRH, LHRH-Rha, LHRH-TEG-Rha and LHRH-HEG-Rha compounds were added at a final concentration of 250 nM. For the blank group (Negative), the corresponding volume of PBS was added. And anti-Rha antibody at a final concentration of 20 μg/mL in all groups. These cells were incubated on ice for 60 min, washed with flow cytometry buffer. And fluorescent secondary antibody was immediately added in all groups. These cells were incubated on ice for 30 min, (3) washed with flow cytometry buffer and then analyzed using an Accuri C6 flow cytometer.
# [2] = system: MCF7 cells (LHRH-R positive); assay: CDC experiment on MCF7 cells; format: cell-based; conditions: MCF-7 cells, 250 nM, anti-Rha antibody, 10% rabbit complement, cck8 kit, FIG. 7
# Experimental: as §1
# (1) MCF7 cells or UCI-107 were seeded in 96-well plates at a concentration of 5000 cells/well and then treated with LHRH, LHRH-Rha, LHRH-TEG-Rha and LHRH-HEG-Rha at a final concentration of 250 nM and a certain concentration of anti-Rha antibody. Following the incubation at 37° C. for 2 h, next, diluted rabbit complement at a final concentration of 10% were added to each well. Following the incubation at 37° C. for 1 h, the results detected using cck8 kit.
# [3] = system: MCF7 cells (LHRH-R positive); assay: ADCC experiment on MCF7 cells; format: cell-based; conditions: MCF-7 cells, 250 nM, anti-Rha antibody, PBMC, LDH method, FIG. 7
# Experimental: as §1
# (1) MCF7 or UCI-107 cells were seeded in 96-well plates at a concentration of 10,000 cells/well and then treated with LHRH, LHRH-Rha, LHRH-TEG-Rha and LHRH-HEG-Rha at a final concentration of 250 nM and a certain concentration of anti-Rha antibody. (2) Following the incubation period, freshly extracted PBMC cells were added at a certain effective target ratio, (3) and the supernatant was treated by centrifugation for minutes, using LDH method to measure the cytotoxicity.
# [4] = system: HT-29 (high expression of integrin αvβ5); assay: Flow cytometry on HT-29 cells; format: cell-based; conditions: FIG. 11
# Experimental: (§2) Cell assay implementation: cell culture: commercial cells HEK-293 (high expression of integrin αvβ3), SKOV-3 (high expression of integrin αvβ3, αvβ 5), and HT-29 (high expression of integrin αvβ5) was cultured in DMEM complete medium. All cell culture conditions were 37° C., 5% CO2. Flow cytometry assay: (1) The cells were digested with trypsin, resuspended in flow medium diluted to 1×10^5 cells. 400 μL of cells (40,000 cells) were added to a sterile EP tube. (2) RGD analogues (SEQ ID NO:9), RGD-DNP and RGD-linker-DNP compounds were added […], incubate on ice for 1 h. Then the cells were washed and incubated with fluorescent secondary antibody for 0.5 h. (3) the cells were thoroughly washed gently with a flow buffer, resuspended, and analyzed by instruments.
# [5] = system: SKOV-3 (high expression of integrin αvβ3, αvβ 5); assay: Flow cytometry on SKOV-3 cells; format: cell-based; conditions: FIG. 11
# Experimental: as §2
# [6] = system: HEK-293 cells; assay: ADCC assay on HEK-293 cells; format: cell-based; conditions: 250 nM, anti-DNP antibody, PBMC, LDH method, FIG. 11
# Experimental: ADCC assay implementation: (1) HEK-293, SKOV-3, HT-29 cells were seeded in 96-well plates at a concentration of 10,000 cells/well. After the cells were fully attached, added with RGD analogues (SEQ ID NO:9), RGD-DNP and RGD-linker-DNP compounds at a final concentration of 250 nM and immediately added a certain concentration of anti-DNP antibody. (2) After incubation for a period of time, freshly extracted PBMC cells were added at a certain effect target ratio for a certain period of time. (3) The supernatant was removed by centrifugation, and cytotoxicity was measured by the LDH method.
# [7] = system: HEK-293 (high expression of integrin αvβ3); assay: Flow cytometry on HEK-293 cells; format: cell-based; conditions: FIG. 11
# Experimental: as §2
# [8] = system: HEK-293 cells; assay: CDC assay on HEK-293 cells; format: cell-based; conditions: 250 nM, anti-DNP antibody, 10% complement, cck8 method, FIG. 11
# Experimental: CDC assay implementation: (1) HEK-293, SKOV-3, HT-29 cells were seeded in 96-well plates at a concentration of 5,000 cells/well. After the cells were fully attached, added with RGD analogues (SEQ ID NO:9), RGD-DNP and RGD-linker-DNP compounds at a final concentration of 250 nM and added a certain concentration of anti-DNP antibody at the same time. After 2 hours of incubation at 37° C., a final concentration of 10% of the complement solution was added and incubated for 1 hour at 37° C. After the incubation, the cell viability was measured by the cck8 method.
# [9] = target: T1, LHRH-R; assay: cell-based or functional assay
# [10] = target: T2, HER2 (UniProt P04626 23-1255, limits assumed); assay: flow cytometry on SKBR3 cells at 250 nM, detected with Alexa 488 rabbit anti-Rha IgG
# T2 construct: whole, on cells; also called human epidermal growth factor receptor 2; HER2 (on SKBR3 cells)
# [11] = system: SKBR3 cells; assay: CDC assay on SKBR3 cells; format: cell-based; conditions: 20% normal human serum, cck8 kit, FIG. 6(B)
# Experimental: (§3) SKBR3 (HER2 positive) and MCF7 cells (HER2 negative) were grown in DMEM supplemented with 10% FBS, 1% penicillin-streptomycin. All cells were cultured at 37° C. in a 5% CO2 humidified atmosphere.
# (1) SKBR3 cells were seeded in 96-well plates at a concentration of 5000 cells/well and (2) then treated with C7b and Rhaconjugated C7b in the presence of 20% normal human serum (the source of anti-Rha IgG and complement). (3) Following the incubation period, the results detected using cck8 kit.
# [12] = system: SKBR3 cells; assay: ADCC assay on SKBR3 cells; format: cell-based; conditions: rabbit anti-Rha IgG, human peripheral blood mononuclear cells, LDH kit, FIG. 6(A)
# Experimental: as §3
# (1) SKBR3 cells were seeded in 96-well plates at a concentration of 10,000 cells/well and then treated with C7b and Rha conjugated C7b in the presence of rabbit anti-Rha IgG antibodies. (2) Next, freshly isolated human peripheral blood mononuclear cells were added to each well. (3) Following the incubation period, the supernatant was transferred onto a new black 96-well and detected using LDH kit.
molecule,measurement,setting,value
"LHRH-TEG-Rha: [6-D-Lys(N3)]-LHRH peptide click-coupled to rhamnose derivative, oligo-glycol linker n=2 ([pGlu]HWSY[dLys(N3)′]([click linkage-oligo‑glycol n:2-rhamnose derivative])LRPG-NH2; reading uncertain; also: rhamnose derivative attached via click (triazole) to D-Lys6, oligo-glycol n=2, structure in drawing)",recruitment of anti-Rha antibodies to MCF-7 tumor cells,[1],could recruit anti-Rha antibodies
same,CDC-mediated killing rate,[2],about 26%
same,ADCC-mediated killing rate,[3],about 33%
"LHRH-Rha: [6-D-Lys(N3)]-LHRH peptide click-coupled to rhamnose derivative, oligo-glycol linker n=0 ([pGlu]HWSYKLRPG-NH2; not fully specified (residue 6); printed as Glp-His-Trp-Ser-Tyr-D-Lys(N3)-Leu-Arg-Pro-Gly-NH2; also: rhamnose derivative attached via click (triazole) to D-Lys6, oligo-glycol n=0, structure in drawing)",recruitment of anti-Rha antibodies to MCF-7 tumor cells,[1],could recruit anti-Rha antibodies
same,CDC-mediated killing rate,[2],about 26%
same,ADCC-mediated killing rate,[3],about 33%
"RGD-DNP: DNP coupled to cyclic RGD analogue Cyclo-(DFKRG), short connecting arm (cyclo(DFKRG); also: DNP conjugated (site only in drawing))",binding to cells,[4],can bind
same,binding to cells,[5],can bind
same,ADCC kill rate,[6],18%
same,binding to cells,[7],can bind
same,CDC kill rate,[8],21%
"RGD-linker-DNP: DNP coupled through a linker to cyclic RGD analogue Cyclo-(DFKRG), long connecting arm (cyclo(DFKRG); also: DNP conjugated via long linker (site only in drawing))",binding to cells,[4],can bind
same,binding to cells,[5],can bind
same,ADCC kill rate,[6],38%
same,binding to cells,[7],can bind
same,CDC kill rate,[8],42%
"LHRH-HEG-Rha: [6-D-Lys(N3)]-LHRH peptide click-coupled to rhamnose derivative, oligo-glycol linker n=5 ([pGlu]HWSY[dLys(N3)′]([click linkage-oligo‑glycol n:5-rhamnose derivative])LRPG-NH2; reading uncertain; also: rhamnose derivative attached via click (triazole) to D-Lys6, oligo-glycol n=5, structure in drawing)",recruitment of anti-Rha antibodies to MCF-7 tumor cells,[1],could recruit anti-Rha antibodies
same,CDC-mediated killing rate,[2],about 26%
same,ADCC-mediated killing rate,[3],about 33%
B1,ADCC-mediated killing rate,[9],~33%
same,CDC-mediated killing rate,[9],~26%
B2,ADCC-mediated killing rate,[9],~33%
same,CDC-mediated killing rate,[9],~26%
B3,ADCC-mediated killing rate,[9],~33%
same,CDC-mediated killing rate,[9],~26%
B4,binding result,[10],binds
B5,binding result,[10],binds
B6,CDC efficacy,[11],36%
same,ADCC efficacy,[12],32%
B7,CDC efficacy,[11],47%
same,ADCC efficacy,[12],43%
